Assay results published in ChEMBL document CHEMBL1201861, “Genomics of Drug Sensitity in Cancer screening data, Wellcome Trust Sanger Institute”.

Columns and labels:
Test in all cases: cells
Format in all cases: functional, cell-based
Settings in all cases: Homo sapiens
[1] = test system: TGBC1TKB;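 further: growth inhibition of TGBC1TKB cells, read out by a cell viability assay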
Description: SANGER: Inhibition of human TGBC1TKB cell growth in a cell viability assay.

[2] = test system: PSN1;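 further: suppression of growth of human PSN1 cells, read out by a cell viability assay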
Description: SANGER: Inhibition of human PSN1 cell growth in a cell viability assay.

[3] = test system: SCH;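 further: growth inhibition of human SCH cells, read out in a cell viability assay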
Description: SANGER: Inhibition of human SCH cell growth in a cell viability assay.

[4] = test system: SK-UT-1;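 further: growth inhibition of SK-UT-1 cells, measured by a cell viability assay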
Description: SANGER: Inhibition of human SK-UT-1 cell growth in a cell viability assay.

[5] = test system: LC-2-ad;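 further: growth inhibition of human LC-2-ad cells, read out with a cell viability assay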
Description: SANGER: Inhibition of human LC-2-ad cell growth in a cell viability assay.

[6] = test system: LOX IMVI
Description: SANGER: Inhibition of human LOXIMVI cell growth in a cell viability assay.

[7] = test system: ES5;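 further: growth inhibition of human ES5 cells, read out by a cell viability assay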
Description: SANGER: Inhibition of human ES5 cell growth in a cell viability assay.

[8] = test system: ACN;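 further: growth inhibition of the human ACN cell line, read out via cell viability testing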
Description: SANGER: Inhibition of human ACN cell growth in a cell viability assay.

[9] = test system: CTB-1
Description: SANGER: Inhibition of human CTB-1 cell growth in a cell viability assay.

[10] = test system: CTV-1;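 further: growth inhibition of the cell line, read out with a cell viability assay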
Description: SANGER: Inhibition of human CTV-1 cell growth in a cell viability assay.

[11] = test system: SW 954;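 further: growth inhibition of SW954 human cancer cells, read out as cell viability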
Description: SANGER: Inhibition of human SW954 cell growth in a cell viability assay.

[12] = test system: IST-MEL1;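 further: growth inhibition of the cell line, read out with a cell viability assay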
Description: SANGER: Inhibition of human IST-MEL1 cell growth in a cell viability assay.

[13] = test system: SW684;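 further: growth inhibition of human SW684 cells, measured by a cell viability assay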
Description: SANGER: Inhibition of human SW684 cell growth in a cell viability assay.

[14] = test system: MFH-ino;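 further: growth inhibition of human MFH-ino cells, read out by a cell viability assay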
Description: SANGER: Inhibition of human MFH-ino cell growth in a cell viability assay.

[15] = test system: TE-5;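 further: inhibition of cell growth, read out by a cell viability assay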
Description: SANGER: Inhibition of human TE-5 cell growth in a cell viability assay.

[16] = test system: EW-3;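 further: cell viability assay read-out, IC50 reflects inhibition of growth of the EW-3 cells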
Description: SANGER: Inhibition of human EW-3 cell growth in a cell viability assay.

[17] = test system: LB771-HNC;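 further: growth inhibition of LB771-HNC human cells, read out with a cell viability assay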
Description: SANGER: Inhibition of human LB771-HNC cell growth in a cell viability assay.

[18] = test system: OS-RC-2;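 further: growth inhibition of human OS-RC-2 cells, measured by a cell viability assay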
Description: SANGER: Inhibition of human OS-RC-2 cell growth in a cell viability assay.

[19] = test system: LB2241-RCC;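 further: cell viability assay measuring how strongly the cultured human renal carcinoma line is prevented from growing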
Description: SANGER: Inhibition of human LB2241-RCC cell growth in a cell viability assay.

[20] = test system: NB6;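 further: growth inhibition of NB6 cells, read out by a cell viability assay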
Description: SANGER: Inhibition of human NB6 cell growth in a cell viability assay.

[21] = test system: D-502MG
Description: SANGER: Inhibition of human D-502MG cell growth in a cell viability assay.

[22] = test system: NCI-H82;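 further: growth inhibition of NCI-H82 cells, measured with a cell viability readout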
Description: SANGER: Inhibition of human NCI-H82 cell growth in a cell viability assay.

[23] = test system: TE-11;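 further: growth inhibition of human TE-11 cells, read out by a cell viability assay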
Description: SANGER: Inhibition of human TE-11 cell growth in a cell viability assay.

[24] = test system: ETK-1;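 further: growth inhibition of human ETK-1 cells, read out with a cell viability assay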
Description: SANGER: Inhibition of human ETK-1 cell growth in a cell viability assay.

[25] = test system: KARPAS-299
Description: SANGER: Inhibition of human KARPAS-299 cell growth in a cell viability assay.

[26] = test system: KG-1;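 further: growth inhibition of KG-1 cells, read out by a cell viability assay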
Description: SANGER: Inhibition of human KG-1 cell growth in a cell viability assay.

[27] = test system: LU-139
Description: SANGER: Inhibition of human LU-139 cell growth in a cell viability assay.

[28] = test system: VA-ES-BJ;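 further: growth inhibition of the VA-ES-BJ cell line, read out by a cell viability assay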
Description: SANGER: Inhibition of human VA-ES-BJ cell growth in a cell viability assay.

[29] = test system: DMS-79;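 further: growth inhibition measured with a cell viability assay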
Description: SANGER: Inhibition of human DMS-79 cell growth in a cell viability assay.

[30] = test system: BB49-HNC;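 further: cell viability assay read-out, reported as inhibition of BB49-HNC cell growth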
Description: SANGER: Inhibition of human BB49-HNC cell growth in a cell viability assay.

[31] = test system: RXF 393;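 further: growth inhibition of human RXF 393 cells, read out with a cell viability assay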
Description: SANGER: Inhibition of human RXF393 cell growth in a cell viability assay.

[32] = test system: NCI-H69;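 further: growth inhibition of the cell line, read out with a cell viability assay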
Description: SANGER: Inhibition of human NCI-H69 cell growth in a cell viability assay.

[33] = test system: MPP-89;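 further: growth inhibition of human MPP-89 cells, read out with a cell viability assay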
Description: SANGER: Inhibition of human MPP-89 cell growth in a cell viability assay.

[34] = test system: DU-4475
Description: SANGER: Inhibition of human DU-4475 cell growth in a cell viability assay.

[35] = test system: NOS-1;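 further: growth inhibition of the human NOS-1 cell line, read out with a cell viability assay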
Description: SANGER: Inhibition of human NOS-1 cell growth in a cell viability assay.

[36] = test system: A3-KAW;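 further: growth inhibition of human A3-KAW cells, read out with a cell viability assay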
Description: SANGER: Inhibition of human A3-KAW cell growth in a cell viability assay.

[37] = test system: TE-1;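 further: growth inhibition of the human TE-1 cell line, read out with a cell viability assay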
Description: SANGER: Inhibition of human TE-1 cell growth in a cell viability assay.

[38] = test system: KGN;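 further: growth inhibition of KGN cells, read out with a cell viability assay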
Description: SANGER: Inhibition of human KGN cell growth in a cell viability assay.

[39] = test system: CW-2;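 further: growth inhibition of CW-2 cells, read out by a cell viability assay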
Description: SANGER: Inhibition of human CW-2 cell growth in a cell viability assay.

[40] = test system: MFM-223
Description: SANGER: Inhibition of human MFM-223 cell growth in a cell viability assay.

[41] = test system: NCI-H510A;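 further: growth inhibition of NCI-H510A cells, read out with a cell viability assay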
Description: SANGER: Inhibition of human NCI-H510A cell growth in a cell viability assay.

[42] = test system: LXF-289 cell line
Description: SANGER: Inhibition of human LXF-289 cell growth in a cell viability assay.

[43] = test system: NCI-H446;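 further: growth inhibition of NCI-H446 cells determined by a cell viability assay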
Description: SANGER: Inhibition of human NCI-H446 cell growth in a cell viability assay.

[44] = test system: HT
Description: SANGER: Inhibition of human HT cell growth in a cell viability assay.

[45] = test system: A4-Fuk;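 further: growth inhibition of A4-Fuk cells, read out by a cell viability assay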
Description: SANGER: Inhibition of human A4-Fuk cell growth in a cell viability assay.

[46] = test system: BE-13;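 further: growth inhibition of human BE-13 cells, measured with a cell viability assay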
Description: SANGER: Inhibition of human BE-13 cell growth in a cell viability assay.

[47] = test system: no-10;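 further: growth inhibition of no-10 cells, read out with a cell viability assay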
Description: SANGER: Inhibition of human no-10 cell growth in a cell viability assay.

[48] = test system: LS-513
Description: SANGER: Inhibition of human LS-513 cell growth in a cell viability assay.

[49] = test system: NCI-H2126;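 further: growth inhibition of the cancer cell line, determined with a cell viability readout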
Description: SANGER: Inhibition of human NCI-H2126 cell growth in a cell viability assay.

[50] = test system: TE-9;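 further: cell growth inhibition, measured with a cell viability readout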
Description: SANGER: Inhibition of human TE-9 cell growth in a cell viability assay.

[51] = test system: SK-MEL-2;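 further: growth inhibition of human SK-MEL-2 cells measured with a cell viability assay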
Description: SANGER: Inhibition of human SK-MEL-2 cell growth in a cell viability assay.

[52] = test system: BV-173
Description: SANGER: Inhibition of human BV-173 cell growth in a cell viability assay.

[53] = test system: COLO-800;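 further: growth inhibition of COLO-800 cells, read out with a cell viability assay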
Description: SANGER: Inhibition of human COLO-800 cell growth in a cell viability assay.

[54] = test system: ES7;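 further: growth inhibition of cultured human ES7 cells, read out as cell viability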
Description: SANGER: Inhibition of human ES7 cell growth in a cell viability assay.

[55] = test system: NCI-H226;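 further: cell viability read-out used to gauge growth inhibition of the cells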
Description: SANGER: Inhibition of human NCI-H226 cell growth in a cell viability assay.

[56] = test system: NKM-1;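 further: growth inhibition of NKM-1 cells, read out with a cell viability assay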
Description: SANGER: Inhibition of human NKM-1 cell growth in a cell viability assay.

[57] = test system: K562
Description: SANGER: Inhibition of human K-562 cell growth in a cell viability assay.

[58] = test system: NOMO-1;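 further: growth inhibition of human NOMO-1 cells measured by a cell viability assay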
Description: SANGER: Inhibition of human NOMO-1 cell growth in a cell viability assay.

[59] = test system: TE-8;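 further: growth inhibition of TE-8 cells, measured with a cell viability readout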
Description: SANGER: Inhibition of human TE-8 cell growth in a cell viability assay.

[60] = test system: DJM-1
Description: SANGER: Inhibition of human DJM-1 cell growth in a cell viability assay.

[61] = test system: COLO-824
Description: SANGER: Inhibition of human COLO-824 cell growth in a cell viability assay.

[62] = test system: SW872
Description: SANGER: Inhibition of human SW872 cell growth in a cell viability assay.

[63] = test system: COLO-829
Description: SANGER: Inhibition of human COLO-829 cell growth in a cell viability assay.

[64] = test system: NCI-H1092
Description: SANGER: Inhibition of human NCI-H1092 cell growth in a cell viability assay.

[65] = test system: HCC2218
Description: SANGER: Inhibition of human HCC2218 cell growth in a cell viability assay.

[66] = test system: HAL-01
Description: SANGER: Inhibition of human HAL-01 cell growth in a cell viability assay.

## CCNc1cc(N[C@H]2CC[C@@H](O)CC2)nc(Nc2ccc3c(ccn3Cc3ccccc3)c2)n1
[1]
  IC50: > 5.12 µM
[2]
  IC50: > 5.12 µM
[3]
  IC50: > 5.12 µM
[4]
  IC50: > 5.12 µM
[5]
  IC50: 0.702 µM
[6]
  IC50: > 5.12 µM
[7]
  IC50: > 5.12 µM
[8]
  IC50: > 5.12 µM
[9]
  IC50: > 5.12 µM
[10]
  IC50: > 5.12 µM
[11]
  IC50: > 5.12 µM
[12]
  IC50: > 5.12 µM
[13]
  IC50: > 5.12 µM
[14]
  IC50: > 5.12 µM
[15]
  IC50: > 5.12 µM
[16]
  IC50: > 5.12 µM
[17]
  IC50: > 5.12 µM
[18]
  IC50: > 5.12 µM
[19]
  IC50: > 5.12 µM
[20]
  IC50: > 5.12 µM
[21]
  IC50: > 5.12 µM
[22]
  IC50: > 5.12 µM
[23]
  IC50: > 5.12 µM
[24]
  IC50: 0.242 µM
[25]
  IC50: > 5.12 µM
[26]
  IC50: > 5.12 µM
[27]
  IC50: > 5.12 µM
[28]
  IC50: > 5.12 µM
[29]
  IC50: > 5.12 µM
[30]
  IC50: > 5.12 µM
[31]
  IC50: > 5.12 µM
[32]
  IC50: > 5.12 µM
[33]
  IC50: > 5.12 µM
[34]
  IC50: > 5.12 µM
[35]
  IC50: 3.26 µM
[36]
  IC50: 1.91 µM
[37]
  IC50: > 5.12 µM
[38]
  IC50: > 5.12 µM
[39]
  IC50: > 5.12 µM
[40]
  IC50: > 5.12 µM
[41]
  IC50: > 5.12 µM
[42]
  IC50: > 5.12 µM
[43]
  IC50: > 5.12 µM
[44]
  IC50: > 5.12 µM
[45]
  IC50: > 5.12 µM
[46]
  IC50: > 5.12 µM
[47]
  IC50: > 5.12 µM
[48]
  IC50: > 5.12 µM
[49]
  IC50: > 5.12 µM
[50]
  IC50: > 5.12 µM
[51]
  IC50: > 5.12 µM
[52]
  IC50: > 5.12 µM
[53]
  IC50: > 5.12 µM
[54]
  IC50: > 5.12 µM
[55]
  IC50: > 5.12 µM
[56]
  IC50: > 5.12 µM
[57]
  IC50: > 5.12 µM
[58]
  IC50: > 5.12 µM
[59]
  IC50: > 5.12 µM
[60]
  IC50: > 5.12 µM
[61]
  IC50: > 5.12 µM
[62]
  IC50: > 5.12 µM
[63]
  IC50: > 5.12 µM
[64]
  IC50: > 5.12 µM
[65]
  IC50: > 5.12 µM
[66]
  IC50: > 5.12 µM

## C[C@]1(c2nc3c(C(N)=O)cccc3[nH]2)CCCN1 [VELIPARIB]
[1]
  IC50: > 5 µM
[2]
  IC50: > 5 µM
[3]
  IC50: > 5 µM
[4]
  IC50: > 5 µM
[5]
  IC50: > 5 µM
[6]
  IC50: > 5 µM
[7]
  IC50: > 5 µM
[8]
  IC50: > 5 µM
[9]
  IC50: > 5 µM
[10]
  IC50: > 5 µM
[11]
  IC50: > 5 µM
[12]
  IC50: > 5 µM
[13]
  IC50: > 5 µM
[14]
  IC50: > 5 µM
[15]
  IC50: > 5 µM
[16]
  IC50: > 5 µM
[17]
  IC50: > 5 µM
[18]
  IC50: > 5 µM
[19]
  IC50: > 5 µM
[20]
  IC50: > 5 µM
[21]
  IC50: > 5 µM
[22]
  IC50: > 5 µM
[23]
  IC50: > 5 µM
[24]
  IC50: > 5 µM
[25]
  IC50: > 5 µM
[26]
  IC50: > 5 µM
[27]
  IC50: > 5 µM
[28]
  IC50: > 5 µM
[29]
  IC50: > 5 µM
[30]
  IC50: > 5 µM
[31]
  IC50: > 5 µM
[32]
  IC50: > 5 µM
[33]
  IC50: > 5 µM
[34]
  IC50: > 5 µM
[35]
  IC50: > 5 µM
[36]
  IC50: > 5 µM
[37]
  IC50: > 5 µM
[38]
  IC50: > 5 µM
[39]
  IC50: > 5 µM
[40]
  IC50: > 5 µM
[41]
  IC50: > 5 µM
[42]
  IC50: > 5 µM
[43]
  IC50: > 5 µM
[44]
  IC50: > 5 µM
[45]
  IC50: > 5 µM
[46]
  IC50: > 5 µM
[47]
  IC50: > 5 µM
[48]
  IC50: > 5 µM
[49]
  IC50: > 5 µM
[50]
  IC50: > 5 µM
[51]
  IC50: > 5 µM
[52]
  IC50: > 5 µM
[53]
  IC50: > 5 µM
[54]
  IC50: > 5 µM
[55]
  IC50: > 5 µM
[56]
  IC50: > 5 µM
[57]
  IC50: > 5 µM
[58]
  IC50: > 5 µM
[59]
  IC50: > 5 µM
[60]
  IC50: > 5 µM
[61]
  IC50: > 5 µM
[62]
  IC50: > 5 µM
[63]
  IC50: > 5 µM
[64]
  IC50: > 5 µM
[65]
  IC50: > 5 µM
[66]
  IC50: > 5 µM
